Assay results as given in the supplement of paper PMC11061612.

Key:
[1] = test system: OVCAR-8 (Ovarian Carcinoma); assay: Bliss excess, mean over the matrix (fraction); higher = more synergy
Procedure, shortened: (§1)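 Cell lines in DMEM/F12 or RPMI with 10% FBS were plated in 1536-well plates, held 24 hours at 37°C, 5% CO2, then given two-drug dose matrices for 72 hours (DMSO typically 0.2%). Viability was read by CellTiter-Glo 2.0 luminescence and scaled as inhibition from 0 (vehicle wells) to 1 (blank wells). Combination Emax is the second-highest inhibition in the matrix; Bliss excess is observed combination effect minus expected EA + EB − EA·EB, EA and EB being single-agent effects.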

[2] = test system: LU-139 (Small Cell Lung Carcinoma); assay: as above
Procedure, shortened: as §1

[3] = test system: OC-314 (Ovarian Carcinoma); assay: as above
Procedure, shortened: as §1

[4] = test system: HO-1-u-1 (Oral Cavity Carcinoma); assay: as above
Procedure, shortened: as §1

[5] = test system: HARA (Squamous Cell Lung Carcinoma); assay: combination Emax (second highest fraction inhibited in the dose matrix, 72 h); higher = more inhibition; extreme values may be limits of the assay
Procedure, shortened: as §1

[6] = test system: LoVo (Colorectal Carcinoma); assay: as above
Procedure, shortened: as §1

Mewo (Melanoma) = assay: as above
Procedure, shortened: as §1

[7] = test system: SW1116 (Colorectal Carcinoma); assay: as above
Procedure, shortened: as §1

[8] = test system: OVCAR-8 (Ovarian Carcinoma); assay: as above
Procedure, shortened: as §1

[9] = test system: NCI-H69 (Small Cell Lung Carcinoma); assay: as above
Procedure, shortened: as §1

[10] = test system: RKO (Colorectal Carcinoma); assay: as above
Procedure, shortened: as §1

[11] = test system: OC-314 (Ovarian Carcinoma); assay: as above
Procedure, shortened: as §1

[12] = test system: PCI-30 (Head and Neck Carcinoma); assay: as above
Procedure, shortened: as §1

[13] = test system: NCI-H747 (Colorectal Carcinoma); assay: as above
Procedure, shortened: as §1

[14] = test system: 8305C (Thyroid Gland Carcinoma); assay: as above
Procedure, shortened: as §1

COLO-829 (Melanoma) = assay: as above
Procedure, shortened: as §1

[15] = test system: MHH-PREB-1 (B-Cell Non-Hodgkin's Lymphoma); assay: as above
Procedure, shortened: as §1

[16] = test system: TE-4 (Esophageal Squamous Cell Carcinoma); assay: as above
Procedure, shortened: as §1

HMV-II (Melanoma) = assay: as above
Procedure, shortened: as §1

[17] = test system: CAL-51 (Breast Carcinoma); assay: as above
Procedure, shortened: as §1
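Wherever Bliss excess, mean over the matrix is given: after 72 h of two-drug dosing.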

SMILES	Bliss excess [1]	Bliss excess [2]	Bliss excess [3]	Bliss excess [4]	combination Emax [5]	combination Emax [6]	combination Emax (Mewo (Melanoma))	combination Emax [7]	combination Emax [8]	combination Emax [9]	combination Emax [10]	combination Emax [11]	combination Emax [12]	combination Emax [13]	combination Emax [14]	combination Emax (COLO-829 (Melanoma))	combination Emax [15]	combination Emax [16]	combination Emax (HMV-II (Melanoma))	combination Emax [17]
Cc1cc2ncnn2cc1Nc1ncc2c(n1)n(C1CCOCC1)c(=O)n2C [AZD7648] + CN(C)CCCOc1ccc(-c2ccc3ncc4c(c3c2)n(C2CCOCC2)c(=O)n4C)cn1 [AZD0156] (first compound max 10 µM, 7x7, partner max 1 µM)	0.0245	-0.0306	0.0334	-0.0542	0.283	0.483	0.285	0.19	0.213	0.355	0.391	0.348	0.234	0.387	0.414	0.129	0.511	0.147	0.342	0.274
C=CCn1c(=O)c2cnc(Nc3ccc(N4CCN(C)CC4)cc3)nc2n1-c1cccc(C(C)(C)O)n1 [AZD1775] + C1CN(CCC1(C(=O)N[C@@H](CCO)C2=CC=C(C=C2)Cl)N)C3=NC=NC4=C3C=CN4 [Capivasertib] (first compound max 3 µM, partner max 3 µM)	-0.0167	0.0096	-0.0158	0.037	0.929	0.937	0.589	0.48	0.812	0.83	0.886	0.915	0.477	0.623	0.681	0.322	0.812	0.88	0.592	0.941
CN(CCO)CC[C@H](CSc1ccccc1)Nc1ccc(S(=O)(=O)NC(=O)c2ccc(N3CCC([C@@H](O)c4ccccc4-c4ccc(Cl)cc4)CC3)cc2)cc1S(=O)(=O)C(F)(F)F [AZD4320] + CCN(CCO)CCCOc1ccc2c(Nc3cc(CC(=O)Nc4cccc(F)c4)[nH]n3)ncnc2c1 [AZD2811] (first compound max 1 µM, 7x7, partner max 1 µM)	0.028	0.0775	0.156	0.107	0.63	0.317	0.303	0.144	0.651	0.896	0.194	0.804	0.284	0.414	0.386	0.196	0.2	0.0998	0.18	0.615
Cc1c2c(nn1C)CSCc1cc(n(C)n1)CSc1cc(c3ccccc3c1)OCCCc1c(C(=O)O)n(C)c3c-2c(Cl)ccc13 [AZD5991] + C1CN(CCC1(C(=O)N[C@@H](CCO)C2=CC=C(C=C2)Cl)N)C3=NC=NC4=C3C=CN4 [Capivasertib] (first compound max 1 µM, 7x7, partner max 3 µM)	0	-0.0056	0.0362	0.0242	0.58	0.625	0.199	0.102	0.169	0.405	0.292	0.297	0.237	0.392	0.319	0.222	0.101	0.81	0.198	0.792
CCN(CCO)CCCOc1ccc2c(Nc3cc(CC(=O)Nc4cccc(F)c4)[nH]n3)ncnc2c1 [AZD2811] + C[C@@H]1COCCN1C2=NC(=NC(=C2)C3(CC3)[S@](=N)(=O)C)C4=C5C=CNC5=NC=C4 [AZD6738] (first compound max 1 µM, 7x7, partner max 10 µM)	-0.0192	-0.108	0.0052	-0.023	0.816	0.83	0.49	0.295	0.797	0.726	0.853	0.869	0.581	0.306	0.567	0.219	0.797	0.372	0.313	0.922
COc1nnc2ccc(N3CCC(c4ccc(OCCN5CCN(C)C(=O)[C@H]5C)cc4)CC3)nn12 [AZD5153] + Cn1cnc2c(F)c(Nc3ccc(Br)cc3Cl)c(C(=O)NOCCO)cc21 [Selumetinib] (first compound max 1 µM, 7x7, partner max 10 µM)	0.0159	0.0169	-0.064	0.0747	0.708	0.862	0.663	0.699	0.759	0.543	0.88	0.795	0.368	0.937	0.576	0.663	0.459	0.871	0.927	0.712
Cc1c2c(nn1C)CSCc1cc(n(C)n1)CSc1cc(c3ccccc3c1)OCCCc1c(C(=O)O)n(C)c3c-2c(Cl)ccc13 [AZD5991] + CN(C)CCCOc1ccc(-c2ccc3ncc4c(c3c2)n(C2CCOCC2)c(=O)n4C)cn1 [AZD0156] (first compound max 1 µM, 7x7, partner max 1 µM)	0.0408	-0.0236	0.0093	0.04	0.312	0.496	0.225	0.173	0.219	0.314	0.225	0.239	0.232	0.414	0.325	0.118	–	0.481	0.256	0.476
Cc1nc(-c2cn3c(n2)-c2ccc(-c4cnn(C(C)(C)C(N)=O)c4)cc2OCC3)n(C(C)C)n1 [Taselisib] + O=C(Nc1ccc2[nH]nc(-c3ccncc3)c2c1)[C@@H]1CCN(CC(=O)N2CCN(c3ccc(-c4ncccn4)cc3)CC2)C1 [SCH772984] (first compound max 10 µM, 7x7, partner max 5 µM)	–	-0.0066	0.0521	0.0064	0.871	0.738	0.777	0.521	–	0.716	0.961	0.747	0.4	–	0.843	–	–	–	0.867	–
C=CCn1c(=O)c2cnc(Nc3ccc(N4CCN(C)CC4)cc3)nc2n1-c1cccc(C(C)(C)O)n1 [AZD1775] + CCc1c2c(nc3ccc(O)cc13)-c1cc3c(c(=O)n1C2)COC(=O)[C@]3(O)CC [SN-38] (first compound max 1 µM, partner max 0.3 µM)	–	-0.0526	0.0032	0.0391	0.943	0.818	0.676	0.43	–	0.748	0.966	0.996	0.836	–	0.589	–	–	–	0.634	–
CCc1c2c(nc3ccc(O)cc13)-c1cc3c(c(=O)n1C2)COC(=O)[C@]3(O)CC [SN-38] + O=C(c1cc(Cc2n[nH]c(=O)c3ccccc23)ccc1F)N1CCN(C(=O)C2CC2)CC1 [Olaparib] (first compound max 0.3 µM, 7x7, partner max 10 µM)	–	0.0842	0.117	0.0415	0.852	0.717	0.338	0.214	–	0.692	0.86	1	0.727	0.542	0.627	0.662	–	0.402	0.641	0.801
CN(CCO)CC[C@H](CSc1ccccc1)Nc1ccc(S(=O)(=O)NC(=O)c2ccc(N3CCC([C@@H](O)c4ccccc4-c4ccc(Cl)cc4)CC3)cc2)cc1S(=O)(=O)C(F)(F)F [AZD4320] + C=CCn1c(=O)c2cnc(Nc3ccc(N4CCN(C)CC4)cc3)nc2n1-c1cccc(C(C)(C)O)n1 [AZD1775] (first compound max 1 µM, partner max 1 µM)	-0.012	0.0145	-0.0187	0.0066	0.887	0.838	0.548	0.264	0.908	0.858	0.617	0.619	0.323	0.446	0.7	0.265	–	0.466	0.47	0.907
CS(=O)(=O)CCNCc1ccc(-c2ccc3ncnc(Nc4ccc(OCc5cccc(F)c5)c(Cl)c4)c3c2)o1 [Lapatinib] + NC1(c2ccc(-c3nc4ccn5c(=O)[nH]nc5c4cc3-c3ccccc3)cc2)CCC1 [MK-2206] (first compound max 10 µM, 7x7, partner max 10 µM)	–	0.0119	0.043	0.0235	0.953	0.713	0.521	0.627	–	0.956	0.931	0.873	0.475	0.898	0.929	0.311	–	–	0.904	–
CS(=O)(=O)CCNCc1ccc(-c2ccc3ncnc(Nc4ccc(OCc5cccc(F)c5)c(Cl)c4)c3c2)o1 [Lapatinib] + Cn1cnc2c(F)c(Nc3ccc(Br)cc3Cl)c(C(=O)NOCCO)cc21 [Selumetinib] (first compound max 10 µM, 7x7, partner max 10 µM)	–	-0.0161	0.0644	-0.0047	0.76	0.742	0.503	0.73	–	0.425	0.763	0.691	0.335	–	0.542	–	–	–	0.768	–
